Results reported in patent US12097241B2, “Methods of treating kidney failure, and/or improving or stablizing renal function using modified relaxin polypeptides” (BRISTOL-MYERS SQUIBB COMPANY, priority 2017, dated 2024).
“Also recorded” adds a separate entry of the source. Marks after values point to notes of the source that are not given here.

Key:
[1] = Rat renal blood flow studies; assay type: in vivo, Sprague Dawley rats; conditions: 1 mg/kg intravenously; for % change in RBF over baseline: anesthetized male Sprague Dawley rats, renal blood flow recorded for 45 min; for effect on renal blood flow (in words): rats, 1 mg/kg
Experimental: Male Sprague Dawley rats (˜250-300 g) were anesthetized with sodium pentobarbital (50 mg/kg), the trachea was cannulated with PE-205 tubing to maintain airway patency, and temperature was maintained at 37° C. with a heated surgical plate. A 1.4 F pressure catheter (Millar Inc., Houston, TX) was advanced into the right carotid artery to measure aortic blood pressure. The right jugular vein was cannulated with PE-50 tubing for administration of test articles. The left kidney was exposed by a retroperitoneal incision, and a Doppler flow probe (Model 0.5 VB, Transonic System Inc., Ithaca, NY) was attached to the left renal artery to monitor blood flow. Sodium pentobarbital (15 mg/kg, intraperitoneal) was supplemented after completion of these surgical procedures. Following a 10-15 min equilibration, the relaxin was administered at 1 mg/kg intravenously in a dosing volume of 0.15 to 1.82 mL/kg over 30 seconds via an infusion pump (Harvard Apparatus, Holliston, MA). Blood pressure, heart rate and renal blood flow were continuously recorded for 45 min after relaxin administration using a Millar MPVS Ultra Signal Conditioning unit connected to a desktop computer running LabChart 7-Pro data acquisition software (ADInstruments, Dunedin, New Zealand) (Table 5). Table 5. Rat renal blood flow changes (abbreviations as in Table 3).

human RXFP1 receptor = biological target: T1, human RXFP1 receptor (Homo sapiens, UniProt Q9HBX9); test: Intracellular cAMP accumulation assay; assay type: cell-based
T1 construct: expressed in transfected cells
T1 sequence (Q9HBX9 1-757): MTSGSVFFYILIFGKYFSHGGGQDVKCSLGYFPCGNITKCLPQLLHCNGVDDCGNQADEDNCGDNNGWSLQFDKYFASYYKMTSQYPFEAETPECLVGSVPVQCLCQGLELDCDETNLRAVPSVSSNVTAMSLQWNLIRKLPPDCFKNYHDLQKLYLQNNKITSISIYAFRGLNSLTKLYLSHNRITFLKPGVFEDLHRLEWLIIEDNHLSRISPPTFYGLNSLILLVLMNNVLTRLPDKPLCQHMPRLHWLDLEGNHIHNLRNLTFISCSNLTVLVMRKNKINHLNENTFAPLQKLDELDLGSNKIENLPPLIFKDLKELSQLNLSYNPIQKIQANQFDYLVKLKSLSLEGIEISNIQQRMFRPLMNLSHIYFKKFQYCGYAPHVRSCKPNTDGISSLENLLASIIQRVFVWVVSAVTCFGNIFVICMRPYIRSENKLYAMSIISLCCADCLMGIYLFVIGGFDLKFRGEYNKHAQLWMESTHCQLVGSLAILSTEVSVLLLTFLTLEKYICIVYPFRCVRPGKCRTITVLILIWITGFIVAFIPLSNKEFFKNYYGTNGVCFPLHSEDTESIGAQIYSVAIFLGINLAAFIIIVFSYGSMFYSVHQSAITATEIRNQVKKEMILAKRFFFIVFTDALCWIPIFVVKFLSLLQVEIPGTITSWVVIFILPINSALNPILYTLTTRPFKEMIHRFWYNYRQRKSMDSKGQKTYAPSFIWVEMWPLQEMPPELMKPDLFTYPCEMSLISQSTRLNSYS

[2] = In vivo pharmacokinetic (PK) studies in rats; design: species or system Sprague-Dawley rats; conditions: rat, male Sprague-Dawley rats, single SC dose 1.0 mg/kg, serum ELISA
Method in brief: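 Male Sprague-Dawley rats (n=3) given a single 1 mg/kg IV or SC dose of relaxin constructs in 20 mM histidine, 750 mM NaCl, pH 6.0; jugular serum sampled to 72 h. Serum relaxin by ELISA; Cmax, AUCinf, C24 and half-life from non-compartmental analysis of individual profiles.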

| Compound | % change in RBF over baseline [1] | effect on renal blood flow (in words) [1] | EC50 (human RXFP1 receptor) [nM] | AUC(0-inf) ([2]; read-out: Rat PK AUC Total) [nM·h] | level at time molar at 24 h ([2]; read-out: Rat PK C24) [nM] |
| --- | --- | --- | --- | --- | --- |
| CCCCCCCCCCCCCC(=O)N[C@@H](CCC(=O)NCCO/N=C(\C)c1ccc(C[C@H](N)C(=O)N[C@@H](CC(C)C)C(=O)N[C@@H](Cc2ccc(O)cc2)C(=O)N[C@@H](CO)C(=O)N[C@@H](C)C(=O)N[C@@H](CC(C)C)C(=O)N[C@@H](C)C(=O)N[C@@H](CC(N)=O)C(=O)N[C@@H](CCCCN)C(=O)N[C@H]2CSSC[C@@H]3NC(=O)CNC(=O)[C@H](C(C)C)NC(=O)[C@H](Cc4c[nH]cn4)NC(=O)[C@H](CSSC[C@H](NC(=O)[C@H](CC(C)C)NC(=O)[C@H](CCCCN)NC(=O)[C@@H](NC(=O)[C@@H](NC(=O)[C@H](CCC(=O)O)NC(=O)[C@H](CCC(=O)O)NC(=O)[C@H](CCSC)NC(=O)[C@H](Cc4c[nH]c5ccccc45)NC(=O)[C@H](CO)NC(=O)[C@H](C)N)C(C)C)[C@@H](C)CC)C(=O)NCC(=O)N[C@@H](CCCNC(=N)N)C(=O)N[C@@H](CCC(=O)O)C(=O)N[C@@H](CC(C)C)C(=O)N[C@@H](C(C)C)C(=O)N[C@@H](CCCNC(=N)N)C(=O)N[C@@H](C)C(=O)N[C@@H](CCC(N)=O)C(=O)N[C@@H]([C@@H](C)CC)C(=O)N[C@@H](C)C(=O)N[C@@H]([C@@H](C)CC)C(=O)N[C@H](C(=O)NCC(=O)N[C@@H](CCSC)C(=O)N[C@@H](CO)C(=O)N[C@H](C(=O)N[C@@H](Cc4c[nH]c5ccccc45)C(=O)N[C@@H](CO)C(=O)O)[C@@H](C)O)CSSC[C@@H](C(=O)O)NC(=O)[C@H](Cc4ccccc4)NC(=O)[C@H](CCCNC(=N)N)NC(=O)[C@H](C)NC(=O)[C@H](CC(C)C)NC(=O)[C@H](CO)NC(=O)[C@H](CCCNC(=N)N)NC(=O)[C@H](CCCCN)NC(=O)[C@H]([C@@H](C)O)NC3=O)NC2=O)cc1)C(=O)O [AQ1-Glu-C13-CH3] | −27^b % | impaired renal blood flow; also recorded: decreased renal blood flow |  |  |  |
| CC[C@H](C)[C@@H]1NC(=O)[C@H](C)NC(=O)[C@H]([C@@H](C)CC)NC(=O)[C@H](CCC(N)=O)NC(=O)[C@H](C)NC(=O)[C@H](CCCNC(=N)N)NC(=O)[C@H](C(C)C)NC(=O)[C@H](CC(C)C)NC(=O)[C@H](CCC(=O)O)NC(=O)[C@H](CCCNC(=N)N)NC(=O)CNC(=O)[C@@H](NC(=O)[C@H](CC(C)C)NC(=O)[C@H](CCCCN)NC(=O)[C@@H](NC(=O)[C@@H](NC(=O)[C@H](CCC(=O)O)NC(=O)[C@H](CCC(=O)O)NC(=O)[C@H](CCSC)NC(=O)[C@H](Cc2c[nH]c3ccccc23)NC(=O)[C@H](CO)NC(=O)[C@H](C)N)C(C)C)[C@@H](C)CC)CSSC[C@@H]2NC(=O)[C@@H](NC(=O)[C@H](CCCCN)NC(=O)[C@H](CC(N)=O)NC(=O)[C@H](C)NC(=O)[C@H](CC(C)C)NC(=O)[C@H](C)NC(=O)[C@H](CO)NC(=O)[C@H](Cc3ccc(O)cc3)NC(=O)[C@H](CC(C)C)NC(=O)[C@@H](N)Cc3ccc(/C(C)=N/OCCNC(=O)CC[C@H](NC(=O)CCCCCCCCCCCCC(=O)O)C(=O)O)cc3)CSSC[C@H](NC(=O)CNC(=O)[C@H](C(C)C)NC(=O)[C@H](Cc3c[nH]cn3)NC2=O)C(=O)N[C@@H]([C@@H](C)O)C(=O)N[C@@H](CCCCN)C(=O)N[C@@H](CCCNC(=N)N)C(=O)N[C@@H](CO)C(=O)N[C@@H](CC(C)C)C(=O)N[C@@H](C)C(=O)N[C@@H](CCCNC(=N)N)C(=O)N[C@@H](Cc2ccccc2)C(=O)N[C@H](C(=O)O)CSSC[C@@H](C(=O)NCC(=O)N[C@@H](CCSC)C(=O)N[C@@H](CO)C(=O)N[C@H](C(=O)N[C@@H](Cc2c[nH]c3ccccc23)C(=O)N[C@@H](CO)C(=O)O)[C@@H](C)O)NC1=O [AQ1-Glu-C13-COOH] | +14^b % |  |  |  |  |
| CCCCCCCCCCCCCC(=O)N[C@@H](CCC(=O)NCCOCCOCCOCCOCCOCCOCCOCCOCCOCCOCCOCCOCCOCCOCCOCCOCCOCCOCCOCCOCCOCCOCCOCCOCCOCCOCCOCCOCCOCCOCCOCCOCCOCCOCCOCCOCCC(=O)NCCO/N=C(\C)c1ccc(C[C@H](N)C(=O)N[C@@H](CC(C)C)C(=O)N[C@@H](Cc2ccc(O)cc2)C(=O)N[C@@H](CO)C(=O)N[C@@H](C)C(=O)N[C@@H](CC(C)C)C(=O)N[C@@H](C)C(=O)N[C@@H](CC(N)=O)C(=O)N[C@@H](CCCCN)C(=O)N[C@H]2CSSC[C@@H]3NC(=O)CNC(=O)[C@H](C(C)C)NC(=O)[C@H](Cc4c[nH]cn4)NC(=O)[C@H](CSSC[C@H](NC(=O)[C@H](CC(C)C)NC(=O)[C@H](CCCCN)NC(=O)[C@@H](NC(=O)[C@@H](NC(=O)[C@H](CCC(=O)O)NC(=O)[C@H](CCC(=O)O)NC(=O)[C@H](CCSC)NC(=O)[C@H](Cc4c[nH]c5ccccc45)NC(=O)[C@H](CO)NC(=O)[C@H](C)N)C(C)C)[C@@H](C)CC)C(=O)NCC(=O)N[C@@H](CCCNC(=N)N)C(=O)N[C@@H](CCC(=O)O)C(=O)N[C@@H](CC(C)C)C(=O)N[C@@H](C(C)C)C(=O)N[C@@H](CCCNC(=N)N)C(=O)N[C@@H](C)C(=O)N[C@@H](CCC(N)=O)C(=O)N[C@@H]([C@@H](C)CC)C(=O)N[C@@H](C)C(=O)N[C@@H]([C@@H](C)CC)C(=O)N[C@H](C(=O)NCC(=O)N[C@@H](CCSC)C(=O)N[C@@H](CO)C(=O)N[C@H](C(=O)N[C@@H](Cc4c[nH]c5ccccc45)C(=O)N[C@@H](CO)C(=O)O)[C@@H](C)O)CSSC[C@@H](C(=O)O)NC(=O)[C@H](Cc4ccccc4)NC(=O)[C@H](CCCNC(=N)N)NC(=O)[C@H](C)NC(=O)[C@H](CC(C)C)NC(=O)[C@H](CO)NC(=O)[C@H](CCCNC(=N)N)NC(=O)[C@H](CCCCN)NC(=O)[C@H]([C@@H](C)O)NC3=O)NC2=O)cc1)C(=O)O [AQ1-PEG36-Glu-C13-CH3] | +20^b % | increased renal blood flow; also recorded: good renal blood flow |  |  |  |
| CC[C@H](C)[C@@H]1NC(=O)[C@H](C)NC(=O)[C@H]([C@@H](C)CC)NC(=O)[C@H](CCC(N)=O)NC(=O)[C@H](C)NC(=O)[C@H](CCCNC(=N)N)NC(=O)[C@H](C(C)C)NC(=O)[C@H](CC(C)C)NC(=O)[C@H](CCC(=O)O)NC(=O)[C@H](CCCNC(=N)N)NC(=O)CNC(=O)[C@@H](NC(=O)[C@H](CC(C)C)NC(=O)[C@H](CCCCN)NC(=O)[C@@H](NC(=O)[C@@H](NC(=O)[C@H](CCC(=O)O)NC(=O)[C@H](CCC(=O)O)NC(=O)[C@H](CCSC)NC(=O)[C@H](Cc2c[nH]c3ccccc23)NC(=O)[C@H](CO)NC(=O)[C@H](C)N)C(C)C)[C@@H](C)CC)CSSC[C@@H]2NC(=O)[C@@H](NC(=O)[C@H](CCCCN)NC(=O)[C@H](CC(N)=O)NC(=O)[C@H](C)NC(=O)[C@H](CC(C)C)NC(=O)[C@H](C)NC(=O)[C@H](CO)NC(=O)[C@H](Cc3ccc(O)cc3)NC(=O)[C@H](CC(C)C)NC(=O)[C@@H](N)Cc3ccc(C(C)=NOCCNC(=O)[C@@H](CCCCN)NC(=O)[C@@H](CCCCN)NC(=O)[C@@H](CCCCN)NC(=O)[C@@H](CCCCN)NC(=O)[C@@H](CCCCN)NC(=O)[C@@H](CCCCN)NC(=O)CC[C@H](NC(=O)CCCCCCCCCCCCC(=O)O)C(=O)O)cc3)CSSC[C@H](NC(=O)CNC(=O)[C@H](C(C)C)NC(=O)[C@H](Cc3c[nH]cn3)NC2=O)C(=O)N[C@@H]([C@@H](C)O)C(=O)N[C@@H](CCCCN)C(=O)N[C@@H](CCCNC(=N)N)C(=O)N[C@@H](CO)C(=O)N[C@@H](CC(C)C)C(=O)N[C@@H](C)C(=O)N[C@@H](CCCNC(=N)N)C(=O)N[C@@H](Cc2ccccc2)C(=O)N[C@H](C(=O)O)CSSC[C@@H](C(=O)NCC(=O)N[C@@H](CCSC)C(=O)N[C@@H](CO)C(=O)N[C@H](C(=O)N[C@@H](Cc2c[nH]c3ccccc23)C(=O)N[C@@H](CO)C(=O)O)[C@@H](C)O)NC1=O [AQ1-dKdKdKdKdKdK-Glu^γ-C13-COOH] |  |  | 0.1 | 31.2 | 0.06 |
